The record followed here is patent publication US9376442B2, “Methylpyrrolopyrimidinecarboxamides” (Takeda GmbH, priority 2009, dated 2016).

One test addresses T1, PDE5A1 (Homo sapiens, UniProt O76074).
T1 construct: from tissue; host or cells: human platelets from fresh donor blood (10,000 x g supernatant of sonicated lysate)
The test can be described thus: Inhibition of type 5 phosphodiesterase (PDE5) activity, modified SPA test with human platelet lysate. It is filed as biochemical. The note with it: 0.5 μM cGMP, read-out: PDE5A1 inhibitory values [measured as −log IC50 (mol/l)] (converted). An outline of the steps:
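Scintillation proximity assay with [3H]cGMP tracer at 0.5 μM total cGMP, stopped after 15 min with beads containing IBMX. PDE3 and PDE2 activities suppressed with motapizone (1 μM) and a PDE2 inhibitor (10 nM). Human platelet supernatant served as the enzyme, with compound preincubated 5 min at 37° C; IC50 values from concentration-effect curves.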

In the next test the target is T2, PDE4B1 (Homo sapiens, UniProt Q07343).
T2 construct: made in house; host or cells: SF21 insect cells (baculovirus; pCRBac vector), 1000 x g supernatant of homogenate
The test can be described thus: Inhibition of type 4 phosphodiesterase (PDE4) activity, modified SPA test with recombinant PDE4B1 expressed in SF21 insect cells. It is filed as biochemical. The note with it: recombinant PDE4B1, 0.5 μM cAMP, read-out: PDE4B1 inhibitory values [measured as −log IC50 (mol/l)] (converted). The method, boiled down: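 Modified [3H]cAMP SPA using 1000×g supernatant of SF21 cells expressing recombinant human PDE4B1, in 20 mM Tris pH 7.4, 0.1 mg/ml BSA, 5 mM Mg2+, 0.5 μM cAMP. After 5 min preincubation at 37 °C, 15 min reaction, stopped with SPA beads plus IBMX; IC50 by non-linear regression.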

T2 sequence (Q07343 whole entry): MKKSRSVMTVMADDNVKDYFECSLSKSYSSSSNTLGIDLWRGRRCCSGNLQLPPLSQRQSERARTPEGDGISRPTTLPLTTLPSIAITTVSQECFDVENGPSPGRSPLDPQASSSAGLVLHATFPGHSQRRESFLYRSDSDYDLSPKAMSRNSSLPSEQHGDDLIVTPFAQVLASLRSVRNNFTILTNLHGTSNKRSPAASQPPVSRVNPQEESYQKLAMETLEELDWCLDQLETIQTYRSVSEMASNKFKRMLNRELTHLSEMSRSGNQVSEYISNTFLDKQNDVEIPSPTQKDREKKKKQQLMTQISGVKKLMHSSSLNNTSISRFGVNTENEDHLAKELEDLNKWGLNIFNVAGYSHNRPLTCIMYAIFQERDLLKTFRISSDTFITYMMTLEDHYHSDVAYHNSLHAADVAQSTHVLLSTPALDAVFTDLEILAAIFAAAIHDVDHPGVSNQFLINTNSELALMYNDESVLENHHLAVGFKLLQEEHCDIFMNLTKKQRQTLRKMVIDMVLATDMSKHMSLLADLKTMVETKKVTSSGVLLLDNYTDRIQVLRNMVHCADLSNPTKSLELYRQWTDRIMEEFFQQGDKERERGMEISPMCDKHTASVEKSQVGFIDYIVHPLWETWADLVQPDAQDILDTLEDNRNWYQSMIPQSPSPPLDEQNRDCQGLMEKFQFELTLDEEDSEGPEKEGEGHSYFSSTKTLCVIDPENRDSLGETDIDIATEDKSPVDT

With `CC(=O)N[C@H]1CC[C@H](NC(=O)c2c(C)[nH]c3c(-c4cc(C(C)C)ccc4OCC4CC4)ncnc23)CC1` [Example E159, N-[trans-4-(Acetylamino)cyclohexyl]-4-[2-(cyclopropylmethoxy)-5-(propan-2-yl)phenyl]-6-methyl-5H-pyrrolo[3,2-d]pyrimidine-7-carboxamide], the IC50 at PDE5A1 was less than 1 nM; on PDE4B1, 100 to 1000 nM.
Regarding `COCC(=O)N[C@H]1CC[C@H](NC(=O)c2c(C)[nH]c3c(-c4cc(C(C)C)ccc4OCC4CC4)ncnc23)CC1` [Example E160, 4-[2-(Cyclopropylmethoxy)-5-(propan-2-yl)phenyl]-N-{trans-4-[(methoxyacetyl)amino]cyclohexyl}-6-methyl-5H-pyrrolo[3,2-d]pyrimidine-7-carboxamide], the IC50 on PDE5A1 is less than 1 nM; on PDE4B1, 100 to 1000 nM.
As for `CC(=O)N1CCC(NC(=O)c2c(C)[nH]c3c(-c4cc(C)ccc4OCC4CC4)nc(C)nc23)CC1` [Example E169, N-(1-Acetylpiperidin-4-yl)-4-[2-(cyclopropylmethoxy)-5-methylphenyl]-2,6-dimethyl-5H-pyrrolo[3,2-d]pyrimidine-7-carboxamide], the IC50 is less than 1 nM at PDE5A1 and 100 to 1000 nM on PDE4B1.
On to `CCC(=O)N1CCC(NC(=O)c2c(C)[nH]c3c(-c4cc(C)ccc4OCC4CC4)nc(C)nc23)CC1` [Example E170, 4-[2-(Cyclopropylmethoxy)-5-methylphenyl]-2,6-dimethyl-N-(1-propanoylpiperidin-4-yl)-5H-pyrrolo[3,2-d]pyrimidine-7-carboxamide], for which the IC50 at PDE5A1 is less than 1 nM; on PDE4B1, 100 to 1000 nM.
Taken in the same sequence, the figures for `COCC(=O)N1CCC(NC(=O)c2c(C)[nH]c3c(-c4cc(C)ccc4OCC4CC4)nc(C)nc23)CC1` [Example E171, 4-[2-(Cyclopropylmethoxy)-5-methylphenyl]-N-[1-(methoxyacetyl)piperidin-4-yl]-2,6-dimethyl-5H-pyrrolo[3,2-d]pyrimidine-7-carboxamide] were less than 1 nM and 100 to 1000 nM.
Taken in the same sequence, the figures for `Cc1ccc(OCC2CC2)c(-c2ncnc3c(C(=O)N[C@H]4CCC[C@@H]4O)c(C)[nH]c23)c1` [Example E176, 4-[2-(Cyclopropylmethoxy)-5-methylphenyl]-N-[(1S,2S)-2-hydroxycyclopentyl]-6-methyl-5H-pyrrolo[3,2-d]pyrimidine-7-carboxamide] were less than 1 nM and less than 100 nM.
Regarding `Cc1ccc(OCC2CC2)c(-c2ncnc3c(C(=O)N[C@H]4CCC[C@H]4O)c(C)[nH]c23)c1` [Example E177, 4-[2-(Cyclopropylmethoxy)-5-methylphenyl]-N-[(1S,2R)-2-hydroxycyclopentyl]-6-methyl-5H-pyrrolo[3,2-d]pyrimidine-7-carboxamide], the IC50 is 1 to 10 nM on PDE5A1 and 100 to 1000 nM on PDE4B1.
Taken in the same sequence, the figures for `Cc1ccc(OCC2CC2)c(-c2ncnc3c(C(=O)N[C@@H]4CCC[C@H]4O)c(C)[nH]c23)c1` [Example E178, 4-[2-(Cyclopropylmethoxy)-5-methylphenyl]-N-[(1R,2R)-2-hydroxycyclopentyl]-6-methyl-5H-pyrrolo[3,2-d]pyrimidine-7-carboxamide] were less than 1 nM and 100 to 1000 nM.
On to `Cc1[nH]c2c(-c3cc(F)ccc3OCC3CC3)ncnc2c1C(=O)NC1CCN(C(=O)CO)CC1` [Example F23, 4-(2-Cyclopropylmethoxy-5-fluoro-phenyl)-6-methyl-5H-pyrrolo[3,2-d]pyrimidine-7-carboxylic acid [1-(2-hydroxy-acetyl)-piperidin-4-yl]-amide], for which the IC50 is 1 to 10 nM at PDE5A1 and 100 to 1000 nM on PDE4B1.
Take `Cc1[nH]c2c(-c3cc(F)ccc3OCC3CC3)ncnc2c1C(=O)NC1CCN(C(=O)[C@H](C)O)CC1` [Example F24, 4-(2-Cyclopropylmethoxy-5-fluoro-phenyl)-6-methyl-5H-pyrrolo[3,2-d]pyrimidine-7-carboxylic acid [1-((S)-2-hydroxy-propionyl)-piperidin-4-yl]-amide]: the IC50 on PDE5A1 was less than 1 nM; at PDE4B1, 100 to 1000 nM.
In the case of `Cc1[nH]c2c(-c3cc(F)ccc3OCC3CC3)ncnc2c1C(=O)N[C@H]1CC[C@H](NC(=O)CO)CC1` [Example F25, 4-[2-(Cyclopropylmethoxy)-5-fluorophenyl]-N-[trans-4-(glycoloylamino)cyclohexyl]-6-methyl-5H-pyrrolo[3,2-d]pyrimidine-7-carboxamide], the figures for the IC50 at PDE5A1 and at PDE4B1 were less than 1 nM and less than 100 nM, respectively.
The corresponding values for `Cc1[nH]c2c(-c3cc(F)ccc3OCC3CC3)ncnc2c1C(=O)N[C@H]1CC[C@H](NC(=O)[C@H](C)O)CC1` [Example F26, 4-[2-(Cyclopropylmethoxy)-5-fluorophenyl]-N-(trans-4-{[(2S)-2-hydroxypropanoyl]amino}cyclohexyl)-6-methyl-5H-pyrrolo[3,2-d]pyrimidine-7-carboxamide] are less than 1 nM and less than 100 nM.
Take `Cc1[nH]c2c(-c3cc(F)ccc3OCC3CC3)ncnc2c1C(=O)N[C@H]1CC[C@@H](NC(=O)[C@H](C)O)CC1` [Example F27, 4-[2-(Cyclopropylmethoxy)-5-fluorophenyl]-N-(cis-4-{[(2S)-2-hydroxypropanoyl]amino}cyclohexyl)-6-methyl-5H-pyrrolo[3,2-d]pyrimidine-7-carboxamide]: the IC50 at PDE5A1 is 1 to 10 nM; on PDE4B1 it was 100 to 1000 nM.
Taken in the same sequence, the figures for `COc1ccc(OCC2CC2)c(-c2ncnc3c(C(=O)NC4CCN(C(=O)CO)CC4)c(C)[nH]c23)c1` [Example F41, 4-[2-(Cyclopropylmethoxy)-5-methoxyphenyl]-N-(1-glycoloylpiperidin-4-yl)-6-methyl-5H-pyrrolo[3,2-d]pyrimidine-7-carboxamide] were less than 1 nM and 100 to 1000 nM.
On to `COc1ccc(OCC2CC2)c(-c2ncnc3c(C(=O)NC4CCN(C(=O)[C@H](C)O)CC4)c(C)[nH]c23)c1` [Example F42, 4-[2-(Cyclopropylmethoxy)-5-methoxyphenyl]-N-{1-[(2S)-2-hydroxypropanoyl]piperidin-4-yl}-6-methyl-5H-pyrrolo[3,2-d]pyrimidine-7-carboxamide], for which the IC50 on PDE5A1 was less than 1 nM; on PDE4B1, 100 to 1000 nM.
Consider `COc1ccc(OCC2CC2)c(-c2ncnc3c(C(=O)N[C@H]4CC[C@H](NC(=O)CO)CC4)c(C)[nH]c23)c1` [Example F43, 4-[2-(Cyclopropylmethoxy)-5-methoxyphenyl]-N-[trans-4-(glycoloylamino)cyclohexyl]-6-methyl-5H-pyrrolo[3,2-d]pyrimidine-7-carboxamide], for which the figures for the IC50 on PDE5A1 and on PDE4B1 were less than 1 nM and 100 to 1000 nM, respectively.
As to `COc1ccc(OCC2CC2)c(-c2ncnc3c(C(=O)NC4CCC(NC(=O)C(C)O)CC4)c(C)[nH]c23)c1` (stereo not drawn) [Example F44, 4-[2-(Cyclopropylmethoxy)-5-methoxyphenyl]-N-(trans-4-{[(25)-2-hydroxypropanoyl]amino}cyclohexyl)-6-methyl-5H-pyrrolo[3,2-d]pyrimidine-7-carboxamide], the IC50 is less than 1 nM on PDE5A1 and 100 to 1000 nM at PDE4B1.
For the compound `COc1ccc(OCC2CC2)c(-c2ncnc3c(C(=O)N[C@H]4CC[C@@H](NC(=O)CO)CC4)c(C)[nH]c23)c1` [Example F45, 4-[2-(Cyclopropylmethoxy)-5-methoxyphenyl]-N-[cis-4-(glycoloylamino)cyclohexyl]-6-methyl-5H-pyrrolo[3,2-d]pyrimidine-7-carboxamide], the IC50 at PDE5A1 is less than 1 nM; at PDE4B1, 100 to 1000 nM.
The corresponding values for `COc1ccc(OCC2CC2)c(-c2ncnc3c(C(=O)N[C@H]4CC[C@@H](NC(=O)[C@H](C)O)CC4)c(C)[nH]c23)c1` [Example F46, 4-[2-(cyclopropylmethoxy)-5-methoxyphenyl]-N-(cis-4-{[(2S)-2-hydroxypropanoyl]amino}cyclohexyl)-6-methyl-5H-pyrrolo[3,2-d]pyrimidine-7-carboxamide] are less than 1 nM and 100 to 1000 nM.
As for `Cc1ccc(OCC2CC2)c(-c2ncnc3c(C(=O)NC4CCN(C(=O)CO)CC4)c(C)[nH]c23)c1` [Example F51], the results for the IC50 at PDE5A1 and at PDE4B1 were less than 1 nM and less than 100 nM, respectively.
On to `Cc1ccc(OCC2CC2)c(-c2ncnc3c(C(=O)NC4CCN(C(=O)[C@H](C)O)CC4)c(C)[nH]c23)c1` [Example F52, 4-[2-(Cyclopropylmethoxy)-5-methylphenyl]-N-{1-[(2S)-2-hydroxypropanoyl]piperidin-4-yl}-6-methyl-5H-pyrrolo[3,2-d]pyrimidine-7-carboxamide], for which the figures for the IC50 on PDE5A1 and on PDE4B1 were less than 1 nM and less than 100 nM, respectively.
As for `Cc1ccc(OCC2CC2)c(-c2ncnc3c(C(=O)N[C@H]4CC[C@H](NC(=O)CO)CC4)c(C)[nH]c23)c1` [Example F53, 4-[2-(Cyclopropylmethoxy)-5-methylphenyl]-N-{trans-4-[(hydroxyacetyl)amino]cyclohexyl}-6-methyl-5H-pyrrolo[3,2-d]pyrimidine-7-carboxamide], the IC50 was less than 1 nM on PDE5A1 and less than 100 nM on PDE4B1.
Taken in the same sequence, the figures for `Cc1ccc(OCC2CC2)c(-c2ncnc3c(C(=O)N[C@H]4CC[C@H](NC(=O)[C@H](C)O)CC4)c(C)[nH]c23)c1` [Example F54, 4-[2-(Cyclopropylmethoxy)-5-methylphenyl]-N-(trans-4-{[(2S)-2-hydroxypropanoyl]amino}cyclohexyl)-6-methyl-5H-pyrrolo[3,2-d]pyrimidine-7-carboxamide] were less than 1 nM and less than 100 nM.
